Test system: Erysiphe graminis f.sp. tritici
Test: Efficacy against Erysiphe graminis f.sp. tritici on wheat (Example B-1)
Format: in vivo
Details: single active ingredient
Description: A synergistic effect exists whenever the action of an active ingredient combination is greater than the sum of the actions of the individual components. The action to be expected E for a given active ingredient combination obeys the so-called COLBY formula and can be calculated as follows (COLBY, S.R. “Calculating synergistic and antagonistic responses of herbicide combination”. Weeds, Vol. 15, pages 20-22; 1967):
ppm=milligrams of active ingredient (=a.i.) per litre of spray mixture
X=% action by active ingredient I using p ppm of active ingredient
Y=% action by active ingredient II using q ppm of active ingredient.
According to Colby, the expected (additive) action of active ingredients I+II using p+q ppm of [formula]
If the action actually observed (O) is greater than the expected action (E), then the action of the combination is superadditive, i.e. there is a synergistic effect.
Wheat plants c.v. “Arina”, about 10 days old, are sprayed with aqueous suspensions of the active ingredients or mixtures thereof. One day later, the plants are inoculated by dusting with spores of Erysiphe graminis. The tests may also be carried out with curative applications, i.e. application 1-3 days after artificial inoculation of the plants. The plants are incubated in the greenhouse or in climate chambers at 20° C., 70% relative humidity. 7 to 10 days after inoculation, fungal attack on primary leaves is assessed.
The efficacy of the rest combinations and the single active ingredients in the above tests is determined by comparing the degree of fungal attack with that on untreated, similarly inoculated check plants.

Cc1cc(C2CC2)nc(Nc2ccccc2)n1 [Cyprodinil, cyprodinil]
% activity observed (Table 2, 10 ppm): 0% | % activity observed (Table 2, 25 ppm): 15%

N#Cc1c[nH]cc1-c1cccc2c1OC(F)(F)O2 [Fludioxonil, fludioxonil]
% activity observed (Table 1, 250 ppm): 20%

CON=C(C(=O)OC)c1ccccc1CON=C(C)c1cccc(C(F)(F)F)c1 [cmpd. V, methyl 2-{2-[4-(3-trifluoromethylphenyl)-3-aza-2-oxa-3-pentenyl]-phenyl}-2-methoxyimino-acetate]
inhibition at 0.25 ppm (Blumeria graminis, Table 3, 0.25 ppm, read-out: % activity observed): 29% | inhibition at 0.5 ppm (Blumeria graminis, Table 3, 0.5 ppm, read-out: % activity observed): 54%

— patent US20030065001A1, “Fungicidal combinations comprising quinazolinone” (priority 1997, published 2003)
